Reference: US7547676B2, “Antagonist peptides to the C5A chemotactic function of vitamin D binding protein” (The Research Foundation of State University of New York, priority 2004, dated 2009)

How the values were obtained:
neutrophils [1] = assay: Neutrophil chemotaxis assay, C5a co-chemotactic activity of DBP; type: cell-based, human
Source text: Isolation of human neutrophils Neutrophils, serum, and plasma were isolated from the venous blood of healthy, medication-free, paid volunteers who gave informed consent. The Institutional Review Board of Stony Brook University approved this procedure. These procedures have been described in detail previously (Kew et al., 1995a).
Neutrophil chemotaxis assay Cell movement was quantitated using a 48 well microchemotaxis chamber (Neuroprobe, Cabin John, Md.) and 5.0 μm pore size cellulose nitrate filters (purchased from Neuroprobe) as previously described (Kew et al., 1995a). Cell suspensions and chemotactic factors were prepared and/or diluted in the chemotaxis assay buffer (Hank's balanced salt solution supplemented with 10 mM HEPES (pH 7.4) and 1% bovine serum albumin). Cell movement was quantitated microscopically by measuring the distance in microns (μm) that the leading front of cells had migrated into the filter according to the method described by Zigmond and Hirsch (1973). In each experiment, five fields per duplicate filter were measured at 400× magnification.

neutrophils [2] = assay: Quantitative binding of radioiodinated DBP to neutrophils; parameters: species or system human; conditions: DBP saturated with the ligand; 100 nM 125I-DBP, 37° C. 60 min
Protocol: Quantitative binding of radioiodinated DBP to neutrophils Purified DBP (200-400 μg) was iodinated using Na-^125I (Dupont-NEN, Wilmington, Del.) as previously described (DiMartino and Kew, 1999). Neutrophils (10^7 cells/sample) were incubated with 100 nM ^125I-DBP in Hank's balanced salt solution (HBSS) containing 0.1% bovine serum albumin (BSA) (assay buffer) in a total volume of 100 μl. Samples were incubated at 37° C. for 60 min after which cells were placed on ice and then washed twice with ice-cold assay buffer (1.0 ml each) and centrifuged for 7 min at 200× g at 2° C. The cell pellets were then counted for total radioactivity in a gamma counter. All samples were assayed in triplicate or quadruplicate.

[3] = test system: Alkaline phosphatase activity on the plasma membrane of viable neutrophils; assay: Neutrophil alkaline phosphatase assay (DiFMUP); type: cell-based, human; conditions: 5×10^6 cells pretreated with 10 nM 1,25(OH)2D3 or 10 μM SOV; untreated 11,107±1335 units
Protocol: Neutrophil alkaline phosphatase assay Alkaline phosphatase activity on the plasma membrane of viable neutrophils was measured using the fluorescent substrate 6,8-difluoro-4-methylumbelliferyl phosphate (DiFMUP) and the EnzChek Phosphatase Assay Kit (Molecular Probes, Eugene, Oreg.). Neutrophils (5×10^6 cells) were suspended in 50 μl of 0.1M sodium acetate (pH 5.0) and were immediately added to microtiter plates containing 50 μl of 0.2mM DiFMUP substrate and incubated for 5 min at 22° C. in the dark. A standard curve was generated using known amounts of the fluorescent compound 6,8-difluoro-7-hydroxy-4-methylcoumarin. Fluorescence was measured at 358 nm excitation and 455 nm emission using a SpectraMax M2 microtiter plate reader (Molecular Devices, Sunnydale, Calif.).

U937-C5aR cells [4] = assay: C5a-induced intracellular calcium mobilization in U937-C5aR cells; type: cell-based, human; conditions: FIG. 11B, 12; 0.5 μM DBP peptide, 50 nM DBP, 0.1 nM C5a
Protocol: FIG. 11A and FIG. 11B show the effect of DBP on C5a-induced intracellular calcium mobilization in U937-C5aR cells. U937-C5aR cells (10^7 cells/ml) were resuspended in HBSS-1% BSA containing 2 μM Fluo-3 AM and incubated at 37° C. for 40 minutes. Cells incubated without the dye were used as a control to measure autofluorescence (Fmin). Following the dye uptake, cells were washed twice then suspended at 5×10^6 cells/ml in HBSS containing 1% BSA. For the pretreatment experiments, cells were incubated for 30 min at 22° C. with 50 nM DBP or 0.5 μM DBP peptide 1 (p1). For each measurement, 400 μl of cell suspension was added to a cuvette and stimulated with the indicated concentration of C5a (FIG. 11A) or 0.1 nM C5a (FIG. 11B). Fluorescence was then measured immediately using a Perkin-Elmer LS-5 fluorometer at 505 nm excitation, 526 nm emission for Fluo-3 AM. Fmax was measured by treating labeled cells with 60 μM digitonin. Intracellular free calcium concentrations were calculated using the following formula: (Ca^2+)=Kd (F−Fmin)/(Fmax−F), where Kd=325 nM for Fluo-3 according to manufacturer (Molecular Probes). Data are presented as mean±SEM (n=4-6) of the increase in intracellular calcium concentration.
U937-C5aR cells (10^7 cells/ml) were resuspended in HBSS-1% BSA containing 2 μM Fluo-3 AM and incubated at 37° C. for 40 minutes. Cells incubated without the dye were used as a control to measure autofluorescence (Fmin). Following the dye uptake, cells were washed twice then suspended at 5×10^6 cells/ml in HBSS containing 1% BSA. Cells were incubated for 30 min at 22° C. with either 50 nM DBP or 0.5 μM DBP peptide. For each measurement, 400 μl of cell suspension was added to a cuvette and stimulated with 0.1 nM purified C5a. Fluorescence was then measured immediately using a Perkin-Elmer LS-5 fluorometer at 505 nm excitation, 526 nm emission for Fluo-3 AM. Fmax was measured by treating labeled cells with 60 μM digitonin. Intracellular free calcium concentrations were calculated using the following formula: (Ca2+)=Kd (F−Fmin)/(Fmax−F), where Kd=325 nM for Fluo-3 according to manufacturer (Molecular Probes)

[5] = test system: differentiated HL-60 cells; assay: Chemotaxis assay, differentiated HL-60 cells responding to C5a, C5a plus DBP or ZAS; type: cell-based, Human; conditions: for block of the cochemotactic function of full-length natural DBP (C5a+DBP) / HL-60 cell chemotactic response to complement-activated serum (ZAS): cells pretreated with 1 μM peptide 30 min; for block of the cochemotactic function of full-length natural DBP (C5a+DBP): 100 pM C5a plus 50 nM DBP, 60 min; for HL-60 cell chemotactic response to complement-activated serum (ZAS): 1% ZAS; for enhancement of C5a-mediated chemotaxis by the peptides: peptides by themselves or mixed together
Protocol: Cells (6×10^6/ml) were resuspended in chemotaxis buffer and treated either with chemotaxis buffer (control), 1 μM of peptide 1 (130-152), or 1 μM of peptide 2 (150-172) for 30 min at room temperature. The chemotactic response of differentiated HL-60 cells to 100 pM C5a alone, C5a plus 50 nM full-length natural DBP or 1% zymosan-activated serum (ZAS) was measured for 60 minutes at 37° C. Numbers represent net cell movement in 60 min, mean±SEM of 3 experiments.
Cells and cell culture: Human promyelocytic cell line HL-60 was obtained from ATCC (Rockville, Md.) and cultured in RPMI 1640 medium supplemented with 10% FBS. Differentiation of HL-60 cells was initiated with 250 μM Bt2cAMP for 48 hours.
Chemotaxis assay. Chemotaxis was performed as described previously (see Kew, R. R. et al., J. Leukoc. Biol. 58, 55-58 (1995)). In brief, 35 μl of C5a (0.01 to 1 nM) in the chemotaxis buffer (HBSS with 1% BSA, 10 mM HEPES) were placed in duplicate in the lower chamber of a 48-well chamber (Neuroprobe, Md.). The lower compartments were covered with a 5 μm pore cellulose nitrate filter and then 50 μl of the cell suspension (2.5×10^5/well) was pipetted into the upper compartments. The chemotactic chamber was incubated for 1 hour at 37° C. in a humidified incubator with 5% CO2. Following incubation, the filter was fixed, stained and mounted on a microscope slide. Cell movement was measured as the distance in microns that the leading front of the cells had migrated into the filter (see Zigmond, S. et al., J. Exp. Med. 137, 387 (1973)).

U937-C5aR cells [6] = assay: Biacore: U937-C5aR cell binding to immobilized DBP peptides; parameters: species or system human; conditions: FIG. 9B, 9C; peptide immobilized to Biacore sensor chip
Protocol: (§1) FIGS. 9A to 9C show the effect of pretreating U937-C5aR cells with purified DBP or DBP peptides on the binding to DBP immobilized on a Biacore sensor chip. FIG. 9A: 10^6 cells/ml in HBSS were not treated (control), pretreated with 50 nM DBP, 0.5 μM DBP peptide 1 (p1) or DBP peptide 2 (p2). FIG. 9B: DBP peptide 1 immobilized to the Biacore sensor chip. FIG. 9C: DBP peptide 2 immobilized to the Biacore sensor chip. Data is expressed as response units of the molecular interaction on the sensor chip.
According to the present invention, the interaction of an immobilized ligand, e.g., immobilized DBP, binding to cells can be measure by any established technology available in the art, e.g., by surface plasmon resonance (SPR) or Biacore technology. For example, in the present invention, the binding of U937-C5aR cells to immobilized DBP were examined by Biacore technology, the result of which is used to further determine if the DBP peptides generated in the present invention can alter the interaction U937-C5aR cells and DBP. […] To investigate further the effect of DBP peptides on cell binding, peptide 1 (FIG. 9B) and peptide 2 (FIG. 9C) were immobilized to Biacore sensor chips. […] These Biacore experiments have provided a powerful quantitative tool to investigate the cell binding region on DBP and examine the effects on DBP peptides on this interaction.

[7] = target: T1, DBP immobilized on a Biacore sensor chip (Homo sapiens, UniProt P02774); assay: Biacore surface plasmon resonance: U937-C5aR cell binding to immobilized DBP; conditions: FIG. 9A; 10^6 cells/ml pretreated with 50 nM DBP or 0.5 μM DBP peptide
T1 construct: DBP was purified from human plasma; purchased Biodesign International; host or cells: human plasma
T1 sequence (P02774 17-474): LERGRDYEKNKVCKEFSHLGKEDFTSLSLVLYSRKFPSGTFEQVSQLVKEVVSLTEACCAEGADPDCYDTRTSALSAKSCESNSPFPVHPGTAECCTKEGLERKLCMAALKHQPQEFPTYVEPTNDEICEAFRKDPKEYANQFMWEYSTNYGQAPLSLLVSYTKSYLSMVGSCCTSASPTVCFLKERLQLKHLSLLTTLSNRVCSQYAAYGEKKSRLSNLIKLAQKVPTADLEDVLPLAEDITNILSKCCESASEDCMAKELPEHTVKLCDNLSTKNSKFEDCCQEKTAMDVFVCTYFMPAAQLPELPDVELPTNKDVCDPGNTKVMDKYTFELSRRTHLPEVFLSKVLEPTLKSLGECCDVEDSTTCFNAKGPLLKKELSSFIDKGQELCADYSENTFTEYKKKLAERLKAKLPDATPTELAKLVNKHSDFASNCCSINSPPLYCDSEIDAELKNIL
Protocol: FIG. 8A and FIG. 8B show immobilization of DBP on a Biacore surface plasmon resonance sensor chip CM5. Purified DBP in HBSS (5 μM) was coupled to the sensor chip. Coupling was detected using 5 μg/ml affinity-purified anti-DBP (FIG. 8A). Different concentrations of U937-C5aR cells in HBSS were injected into the flow cell and allowed to interact with the immobilized DBP (FIG. 8B). Data is expressed as response units of the molecular interaction on the sensor chip.
as §1
U937-C5aR cells (10^6 cells/ml in HBSS) were pretreated with a 25 μg/ml control IgG, 50 nM purified DBP or 25 μg/ml affinity-purified anti-CD44 and then allowed to interact with DBP immobilized on a Biacore sensor chip. Data is expressed as response units of the molecular interaction on the sensor chip.
According to the present invention, the interaction of an immobilized ligand, e.g., immobilized DBP, binding to cells can be measure by any established technology available in the art, e.g., by surface plasmon resonance (SPR) or Biacore technology. For example, in the present invention, the binding of U937-C5aR cells to immobilized DBP were examined by Biacore technology, the result of which is used to further determine if the DBP peptides generated in the present invention can alter the interaction U937-C5aR cells and DBP. […] To investigate further the effect of DBP peptides on cell binding, peptide 1 (FIG. 9B) and peptide 2 (FIG. 9C) were immobilized to Biacore sensor chips. […] Finally, the present invention also identifies that CD44 on the cell surface binds DBP and can, in part, mediate the C5a chemotactic cofactor effect of DBP (McVoy and Kew, J. Immunol. 175:4754, 2005). Therefore, using Biacore technology the present invention addresses the effect of blocking CD44 on U937-C5aR binding to immobilized DBP (FIG. 10). In the present invention, U937-C5aR cells were pretreated with either an irrelevant goat IgG (negative control), purified soluble DBP (positive control) or affinity-purified goat anti-CD44. […] These Biacore experiments have provided a powerful quantitative tool to investigate the cell binding region on DBP and examine the effects on DBP peptides on this interaction.

Compound	neutrophil chemotaxis to optimal concentrations of C5a, formyl peptide, LTB4 or CXCL8 (IL-8) (neutrophils [1]; 10 nM bound to DBP)	effect on co-chemotactic activity of DBP (neutrophil chemotaxis toward C5a) (neutrophils [1]; ligand bound to DBP, 1,25(OH)2D3 100 nM)	effect on binding of 125I-DBP to neutrophils (neutrophils [2])	neutrophil AP activity [3]	block of the DBP-enhanced C5a calcium signal (U937-C5aR cells [4])	block of the cochemotactic function of full-length natural DBP (C5a+DBP) ([5]; listed as DBP peptide 1)	block of the cochemotactic function of full-length natural DBP (C5a+DBP) ([5]; listed as SEQ ID NO: 3)	HL-60 cell chemotactic response to complement-activated serum (ZAS) ([5]; listed as DBP peptide 1)	HL-60 cell chemotactic response to complement-activated serum (ZAS) ([5]; listed as SEQ ID NO: 3)	enhancement of C5a-mediated chemotaxis by the peptides [5]	U937-C5aR cell binding to immobilized peptide (U937-C5aR cells [6])	inhibition of U937-C5aR cell binding to the DBP chip [7]	block of the cochemotactic function of full-length natural DBP (C5a+DBP) [5]
C=C1/C(=C\C=C2/CCC[C@]3(C)[C@@H]([C@H](C)CCCC(C)(C)O)CC[C@@H]23)C[C@@H](O)C[C@@H]1O [1,25(OH)2D3, 1,25(OH)2 Vitamin D3]	does not alter neutrophil chemotaxis	completely eliminated the co-chemotactic effect	did not alter DBP binding to neutrophils	not significantly altered									
EAFRKDPKEYANQFMWEYSTNYG [peptide 1, DBP residues 130-152]					completely blocks	completely blocked the chemotactic enhancing effect of DBP	completely block	completely blocked	eliminate	could not enhance C5a-mediated chemotaxis	do not bind	no effect on cell binding	
NYGQAPLSLLVSYTKSYLSMVGS [peptide 2, DBP residues 150-172]										could not enhance C5a-mediated chemotaxis	do bind	about 50%	not
